According to patent US11840548B2, “UV-curable phosphonium small molecules as antimicrobial coatings and surface active additives” (SCI RESOURCE PLATFORM INC., priority 2020, dated 2023):
“Also recorded” adds a separate entry of the source.

How the values were obtained:
[1] = tested on: E. coli (ATCC strain 11229); assay: large drop inoculum (LDI) test, E. coli; type: cell-based; settings: UV-cured coating on polystyrene plastic; after 24 hours in contact with the surface
Description: To guarantee all inoculated cells enter into contact with the test surface, […], serially diluted, plated out onto tryptic soy agar, and enumerated to assess the extent of cell survival and thus antimicrobial efficacy of the test surfaces. Arthrobacter (IAI-3) and E. coli (ATCC strain 11229) were chosen as representative Gram-positive and Gram-negative bacterial strains.
The efficacy of these materials against the representative strains of Gram-negative and Gram-positive bacteria lead us to probe the antimicrobial capability of these materials after being subject to abrasive processes, to determine whether tethered sub-surface phosphonium observed by XPS can translate to materials with antimicrobial properties after the surface has be abraded. The process of using an aqueous solution to wipe or rub away dirt or bacteria is one fundamental to sanitation,^50 and as such the solvent double rub protocol described in ASTM D5402^51 was chosen as a representative test of durability. Water was chosen as the solvent due to its ubiquity in cleaning solutions. The same extruded polypropylene samples subjected to the LDI were first rinsed with copious amounts of sterile distilled water, then vortexed for 5 minutes in saline to remove any bacterial debris from the initial test. After another rinse step, the pieces were subjected to 100 solvent double rubs on the tested side using a cotton cloth saturated with distilled water, the amount of force of each rub measured to be between 1000 g and 1600 g. After 100 double rubs, the pieces were rinsed, sterilized under UV light, and the abraded sides were subject to another loading of bacteria.

Arthrobacter sp. (IAI-3) = assay: large drop inoculum (LDI) test, Arthrobacter; type: cell-based; settings: UV-cured coating on polystyrene plastic; after 3 hours in contact with the surface
Method: To guarantee all inoculated cells enter into contact with the test surface, the samples with the droplet are subjected to a standardized 3 h drying period. The cells are then recovered, serially diluted, plated out onto tryptic soy agar, and enumerated to assess the extent of cell survival and thus antimicrobial efficacy of the test surfaces. Arthrobacter (IAI-3) and E. coli (ATCC strain 11229) were chosen as representative Gram-positive and Gram-negative bacterial strains.

[2] = advancing water contact angle measurement; type: physicochemical; settings: UV-cured phosphonium coating on polystyrene; triplicate
Method: Advancing water contact angle (θC) measurements were performed on the coated pieces to further probe the relationship between the structure of the phosphonium small molecules coated on the substrate and their macroscopic properties as coatings. Measurements for θC trend with charge density results (Table 1).
Thus, after the coating step, a pre-extrusion UV-cure process was introduced to immobilize the phosphoniums to the plastic bead surface. Extrusion of these pre-cured beads at 220° C. into a mold pre-heated to 100° C. yielded the tributylphosphonium-containing plastic PP-2, triphenylphosphonium-containing PP-3, (FIG. 8) and perfluoroalkylphosphonium-containing PP-4 as off-white coloured “dogbone” pieces. The discoloration was due to the amber or off-white natural coloring of the phosphoniums added to the melt, and not UV or heat exposure. The effect of incorporating each phosphonium at 1% was quantified by advancing WCA (Table 1). […] FIG. 1 is a schematic illustration showing a cross section of antimicrobial-enriched plastic with sub-surface phosphonium, which upon abrasion is exposed and available to combat microbial growth.

| θc, advancing water contact angle [2] | SMILES | reduction of viable Gram-negative E. coli cells [1] | reduction of viable Gram-positive Arthrobacter cells (Arthrobacter sp. (IAI-3)) |
| --- | --- | --- | --- |
| 63.5±5.8 deg | O=C(c1ccccc1)c1ccc(OCCC[P+](c2ccccc2)(c2ccccc2)c2ccccc2)cc1.[Br-] [phosphonium 3] | full reductions | full reductions |
| 36.4±11.0 deg | CCCC[P+](CCCC)(CCCC)CCCOc1ccc(C(=O)c2ccccc2)cc1.[Br-] [phosphonium 2] | full reductions | full reductions |
| 71.9 ± 5.1 deg | C[P+](C)(C)CCCOc1ccc(C(=O)c2ccccc2)cc1.[Br-] [phosphonium 1] | failing to reduce bacterial survivability; also recorded: lack of observed antimicrobial activity | failing to reduce bacterial survivability; also recorded: lack of observed antimicrobial activity |

| SMILES | θc, advancing water contact angle [2] | reduction of viable Gram-negative E. coli cells [1] | reduction of viable Gram-positive Arthrobacter cells (Arthrobacter sp. (IAI-3)) |
| --- | --- | --- | --- |
| O=C(c1ccccc1)c1ccc(OCCC[P+](CCC(F)(F)C(F)(F)C(F)(F)C(F)(F)C(F)(F)C(F)(F)F)(c2ccccc2)c2ccccc2)cc1.[Br-] [phosphonium 4] | 68.0±2.0 deg | full reductions | full reductions |
